{
  "source": "paper PMC2375285",
  "about": "“Inhibition of all-TRANS-retinoic acid metabolism by R116010 induces antitumour activity” (British Journal of Cancer, 2002)",
  "key": {"TA3-Ha mammary tumours": {"tested_on": "TA3-Ha mammary tumours", "experiment": "TA3-Ha mammary carcinoma model", "description": "(§1) Cells (1.5×10^6) were injected intraperitoneally in syngeneic A/J mice. […] Each group consisted of 10 animals for experiments with R116010 and of six animals for experiments with RA. All treatments were performed by oral gavage. […] The control groups were given the vehicle 20% 4-OH-β-cyclodextrine in sterile saline. Mice were daily examined for adverse drug effects. At the end of the experiments, subcutaneous tumours were excised 24 h after the last treatment and weighed to validate the antitumoural effects of the treatment.\n(§2) Data are represented as box plots showing median group value, 25/75th percentile, 10/90th percentile and outliers. Groups were statistically compared to the vehicle-treated groups using the Mann–Whitney U-test. Significance was defined at the level of P<0.05."}, "in vivo": {"experiment": "in vivo", "details": "mouse, po", "description": "as §1, §2"}, "[1]": {"experiment": "Blood hormone levels in rats treated with R116010", "type": "in vivo", "details": "10 mg kg^−1 R116010"}, "[2]": {"tested_on": "androgen-independent rat prostatic Dunning R3327/PIF-1 carcinoma cells", "set-up": "method as in Van Ginckel et al, 1999", "details": "in vivo; ref Van Ginckel et al, 1999; cited from earlier work"}, "Lewis lung (3LL) tumours": {"tested_on": "Lewis lung (3LL) tumours", "set-up": "method as in Smets et al, manuscript in preparation", "details": "in vivo; ref Smets et al, manuscript in preparation; cited from earlier work"}, "CYP3A": {"tested_on": "CYP3A", "experiment": "Testosterone 6β-hydroxylase in rat liver microsomes", "details": "probe testosterone", "description": "(§3) The conversion of androstenedione to estrone by aromatase (CYP19) in human placental microsomes, the conversion of 17-hydroxy-20-dihydroprogesterone to testosterone by 17,20-lyase (CYP17) in rat testicular S10 fractions, and the 2α-, 7α-, 6β-, and 16β-hydroxylation of testosterone (CYP2C11, CYP2A1, CYP3A, CYP2B1/2) in rat liver microsomes were carried out as described ([Vanden Bossche et al, 1990])."}, "T47D cells": {"tested_on": "T47D cells", "experiment": "T47D cell proliferation (MTT assay, 7 days)", "type": "cell-based, human", "details": "for enhancement of the antiproliferative activity of RA: T47D cells", "protocol": "T47D cells were seeded in Falcon® 96-well cell culture plates (Life Technologies, Merelbeke, Belgium) at 2500 cells per well in a total volume of 150 μl. Cells were allowed to adhere to plastic for 24 h. Drugs and/or medium were added to a final volume of 200 μl (day 0). Cells were grown under these conditions for 7 days, with renewal of medium and drugs on days 2 and 5. On day 7, medium was renewed and 25 μl MTT-solution was added, and cells were further incubated for 2 h in a cell incubator. The medium was aspirated and 25 μl Sorensen glycine buffer (0.1 M glycine, 0.1 M NaCl; pH 10.5) was added together with 100 μl DMSO to solubilize the blue MTT-formazan product. […] Data are presented as mean±s.d. of three or four independent experiments. Within an experiment, the result of each experimental condition is the mean of six replicate wells. The IC50-values were calculated by non-linear regression analysis using SigmaPlot 4.01 software."}, "CYP2B1/2": {"tested_on": "CYP2B1/2", "experiment": "Testosterone 16β-hydroxylase in rat liver microsomes", "type": "biochemical", "details": "probe testosterone (16β-hydroxylation)", "description": "as §3"}, "aromatase (CYP19)": {"target": "T1, aromatase (CYP19) (Homo sapiens, UniProt P11511)", "T1 construct": "aromatase (CYP19) in human placental microsomes; from tissue; host or cells: human placenta, microsomes", "T1 sequence (P11511 1-503)": "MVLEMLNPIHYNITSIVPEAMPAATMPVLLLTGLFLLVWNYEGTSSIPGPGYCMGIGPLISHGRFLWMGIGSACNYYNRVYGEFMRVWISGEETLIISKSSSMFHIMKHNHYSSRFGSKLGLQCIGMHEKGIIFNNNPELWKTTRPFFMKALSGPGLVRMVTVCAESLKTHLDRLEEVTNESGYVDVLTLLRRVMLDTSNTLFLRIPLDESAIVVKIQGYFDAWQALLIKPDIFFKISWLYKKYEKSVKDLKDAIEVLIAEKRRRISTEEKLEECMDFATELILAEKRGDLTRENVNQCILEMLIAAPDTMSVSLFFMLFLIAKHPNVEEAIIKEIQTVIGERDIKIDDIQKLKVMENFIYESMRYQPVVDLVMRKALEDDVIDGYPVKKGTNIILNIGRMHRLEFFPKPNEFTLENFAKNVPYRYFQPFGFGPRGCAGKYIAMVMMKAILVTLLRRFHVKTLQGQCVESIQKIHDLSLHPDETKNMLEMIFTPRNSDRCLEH", "experiment": "Aromatase, conversion of androstenedione to estrone in human placental microsomes", "type": "biochemical", "description": "as §3"}, "17,20-lyase (CYP17)": {"target": "T2, 17,20-lyase (CYP17) (Rattus norvegicus, UniProt P11715)", "T2 construct": "17,20-lyase (CYP17) in rat testicular S10 fractions; from tissue; host or cells: rat testis, S10 fraction", "T2 sequence (P11715 1-507)": "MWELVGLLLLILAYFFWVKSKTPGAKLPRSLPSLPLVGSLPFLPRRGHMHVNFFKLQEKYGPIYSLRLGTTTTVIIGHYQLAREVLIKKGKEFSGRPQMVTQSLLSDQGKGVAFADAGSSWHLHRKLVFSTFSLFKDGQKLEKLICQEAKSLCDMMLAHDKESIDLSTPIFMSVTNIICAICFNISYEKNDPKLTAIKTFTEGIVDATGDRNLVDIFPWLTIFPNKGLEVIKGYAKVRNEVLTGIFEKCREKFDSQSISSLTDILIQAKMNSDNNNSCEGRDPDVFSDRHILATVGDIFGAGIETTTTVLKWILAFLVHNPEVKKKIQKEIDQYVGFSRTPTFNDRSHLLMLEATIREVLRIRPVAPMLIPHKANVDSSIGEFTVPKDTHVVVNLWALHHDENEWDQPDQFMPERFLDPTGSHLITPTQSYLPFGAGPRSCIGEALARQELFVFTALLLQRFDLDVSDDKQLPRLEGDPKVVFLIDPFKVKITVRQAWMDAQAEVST", "experiment": "17,20-lyase in rat testicular S10 fraction", "type": "biochemical", "description": "Metabolism of RA by CYP26A1 was measured in microsomes of T47D human breast cancer cells that were pretreated for 16 h with 1 μM RA to induce RA metabolism. Microsomes were prepared exactly as described by [Han and Choi (1996)], and RA metabolism was measured as described by [Van Wauwe et al (1994)]. The conversion of androstenedione to estrone by aromatase (CYP19) in human placental microsomes, the conversion of 17-hydroxy-20-dihydroprogesterone to testosterone by 17,20-lyase (CYP17) in rat testicular S10 fractions, and the 2α-, 7α-, 6β-, and 16β-hydroxylation of testosterone (CYP2C11, CYP2A1, CYP3A, CYP2B1/2) in rat liver microsomes were carried out as described ([Vanden Bossche et al, 1990])."}, "CYP2A1": {"target": "T3, CYP2A1 (Rattus norvegicus, UniProt P11711)", "T3 construct": "hydroxylation of testosterone (CYP2C11, CYP2A1, CYP3A, CYP2B1/2) in rat liver microsomes; from tissue; host or cells: rat liver, microsomes", "T3 sequence (P11711 1-492)": "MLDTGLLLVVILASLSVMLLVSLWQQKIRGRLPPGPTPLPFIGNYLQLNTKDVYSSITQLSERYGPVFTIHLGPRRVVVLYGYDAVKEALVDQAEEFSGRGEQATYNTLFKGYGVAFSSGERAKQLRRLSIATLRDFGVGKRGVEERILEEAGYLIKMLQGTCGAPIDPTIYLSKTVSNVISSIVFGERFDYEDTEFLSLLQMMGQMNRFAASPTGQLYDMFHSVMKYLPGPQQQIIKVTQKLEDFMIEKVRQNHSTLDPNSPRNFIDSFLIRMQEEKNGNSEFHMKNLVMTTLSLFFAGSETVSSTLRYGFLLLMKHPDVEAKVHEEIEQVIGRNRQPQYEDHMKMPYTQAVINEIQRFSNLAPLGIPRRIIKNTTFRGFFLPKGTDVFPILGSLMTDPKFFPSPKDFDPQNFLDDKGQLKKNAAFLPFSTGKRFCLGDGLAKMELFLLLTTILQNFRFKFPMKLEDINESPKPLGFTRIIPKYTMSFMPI", "experiment": "Testosterone 7α-hydroxylase in rat liver microsomes", "type": "biochemical", "description": "as §3"}},
  "data": [
    {"smiles": "C[C@@H]([C@H](c1ccc(Nc2nc3ccccc3s2)cc1)n1ccnc1)N(C)C", "note": "[R116010, [S-(R*,R*)]-N-[4-[2-(dimethylamino)-1-(1H-imidazole-1-yl)propyl]-phenyl]-2-benzothiazolamine]", "values": [
      {"measurement": "body weight decrease", "setting": "TA3-Ha mammary tumours; R116010 5 mg kg^−1, mice", "result": "~15", "unit": "%"},
      {"measurement": "toxicity findings", "setting": "TA3-Ha mammary tumours; at toxic dose: RA 5, R116010 5, liarozole fumarate 20 mg kg^−1", "result": "hair loss and bone fractures"},
      {"measurement": "therapeutic window", "setting": "TA3-Ha mammary tumours; maximum tolerated dose versus lowest active dose, TA3-Ha model", "result": 30, "unit": "fold"},
      {"measurement": "dose at which toxicity was observed", "setting": "TA3-Ha mammary tumours; mice, oral, twice daily, toxicity related to hypervitaminosis A", "result": 5, "unit": "mg/kg"},
      {"measurement": "fold more potent than liarozole-fumarate in TA3-Ha model", "setting": "TA3-Ha mammary tumours; oral, twice daily", "result": "approximately 60 fold"},
      {"measurement": "lowest active dose inhibiting TA3-Ha tumour growth", "setting": "TA3-Ha mammary tumours; oral, twice daily, day 1 until day 21, tumour weight", "result": 0.16, "unit": "mg/kg"},
      {"measurement": "MTD", "setting": "in vivo", "result": 5, "unit": "mg/kg"},
      {"measurement": "change in blood hormone levels", "setting": "[1]", "result": "no change"},
      {"measurement": "growth of orthotopically implanted Dunning R3327/PIF-1 carcinoma cells", "setting": "[2]", "result": "inhibit the growth"},
      {"measurement": "growth of subcutaneous mouse Lewis lung (3LL) tumours", "setting": "Lewis lung (3LL) tumours", "result": "inhibit the growth"},
      {"measurement": "IC50", "setting": "CYP3A", "result": "> 10", "unit": "µM"},
      {"measurement": "inhibition at 10 μM", "setting": "CYP3A", "result": 41, "unit": "%"},
      {"measurement": "enhancement of the antiproliferative activity of RA", "setting": "T47D cells; 0.01 μM R116010", "result": 1.25, "unit": "fold"},
      {"measurement": "enhancement of the antiproliferative activity of RA", "setting": "T47D cells; 0.1 μM R116010", "result": 2.6, "unit": "fold"},
      {"measurement": "enhancement of the antiproliferative activity of RA", "setting": "T47D cells; 1 μM R116010", "result": "three-fold"},
      {"measurement": "effect on T47D cell proliferation by itself", "setting": "T47D cells; compound alone, 7 days, MTT", "result": "no effect"},
      {"measurement": "inhibition at 10 μM", "setting": "CYP2B1/2; 10 μM R116010, rat liver microsomes, read-out: percentage of inhibition, Testosterone 16β-hydroxylase (CYP2B1/2)", "result": 21, "unit": "%"},
      {"measurement": "IC50", "setting": "CYP2B1/2; Rat liver microsomes", "result": "> 10", "unit": "µM"},
      {"measurement": "inhibition at 10 μM", "setting": "aromatase (CYP19); 10 μM R116010, human placental microsomes, read-out: percentage of inhibition, Aromatase (CYP19)", "result": 12, "unit": "%"},
      {"measurement": "IC50", "setting": "aromatase (CYP19); Human placental microsomes", "result": "> 10", "unit": "µM"},
      {"measurement": "IC50", "setting": "17,20-lyase (CYP17)", "result": 0.25, "unit": "µM"},
      {"measurement": "IC50", "setting": "CYP2A1; Rat liver microsomes", "result": "> 10", "unit": "µM"},
      {"measurement": "inhibition at 10 μM", "setting": "CYP2A1; probe testosterone (7α-hydroxylation), 10 μM R116010, rat liver microsomes, read-out: percentage of inhibition, Testosterone 7α-hydroxylase (CYP2A1)", "result": 12, "unit": "%"}
    ]}
  ]
}
